Results reported in US5591741A, “Fungicidal spiroheterocyclic derivatives” (American Cyanamid Company, priority 1993, dated 1997).

Columns and labels:
[1] = system: Plasmopara viticola; assay: Antisporulant activity against vine downy mildew (PVA); format: in vivo; conditions: vine leaves, antisporulant foliar spray, 600 ppm, 750 l/ha
Procedure, shortened: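 Cabernet Sauvignon vines (~8 cm) inoculated on lower leaf surfaces with 5×10^4 zoosporangia/ml, held 24 h at 21° C high humidity then 24 h glasshouse. Infected leaves sprayed underside with 600 ppm compound in 1:1 water/acetone, 0.04% Tween 20, 750 l/ha; 96 h glasshouse, 24 h humidity. Sporulating leaf area rated versus control.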

[2] = system: Erysiphe graminis f.sp. hordei; assay: Activity against barley powdery mildew, direct therapeutic (EGT); format: in vivo; conditions: direct therapeutic foliar spray, 600 ppm, up to 7 days
Procedure, shortened: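 Barley seedlings (cv. Golden Promise, single-leaf stage) were dusted with mildew conidia one day before a therapeutic foliar spray of 600 ppm compound. Plants were kept at 18 °C and 40% humidity for up to 7 days, and sporulating leaf area was rated against untreated or diluent-sprayed controls.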

[3] = system: Erysiphe graminis f.sp. hordei; assay: Direct protectant activity against barley powdery mildew (EGP); format: in vivo; conditions: direct protectant foliar spray, 8 days
Procedure, shortened: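 Barley seedlings (cv Golden Promise, single-leaf stage) were foliar-sprayed, held 24 h at 18 °C/40% RH, then dusted with mildew conidia. After 8 days at 18 °C/40% RH, sporulating leaf area was scored as a rating against untreated or diluent-sprayed controls.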

[4] = system: Rhizoctonia solani; assay: Activity against Rhizoctonia in-vitro (RSI); format: cell-based; conditions: 10 ppm, 10 days, 20° C., mycelial growth
Procedure, shortened: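 R. solani mycelial fragments (5×10^4/ml) in half-strength Potato Dextrose Broth with compound added from acetone to 10 ppm final. Mycelial growth assessed after 10 days at 20° C, rated against untreated or diluent control.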

[5] = system: Venturia inaequalis; assay: Activity against apple scab in-vitro (VII); format: cell-based; conditions: 10 ppm, 10 days, 20° C., mycelial growth
Procedure, shortened: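 Compound in acetone was tested at 10 ppm final in half-strength Potato Dextrose Broth inoculated with V. inaequalis mycelial fragments and spores at 5×10^4 propagules/ml. After 10 days at 20° C, mycelial growth was rated against untreated or diluent controls.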

[6] = system: Alternaria solani; assay: Activity against tomato early blight (AS); format: in vivo; conditions: Table VI; tomato seedlings, contact prophylactic foliar spray, 4 days
Procedure, shortened: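 Foliar contact prophylactic spray on tomato seedlings (cv Outdoor Girl, second true leaf expanded) in acetone/water 50:50 with 0.04% Tween 20; 24 h at 20° C, 40% R.H., then inoculation with 10^4 spores/ml A. solani conidia. Kept moist at 21° C; lesion cover rated 4 days post-inoculation against untreated or diluent-sprayed controls.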

[7] = system: Pyricularia oryzae; format: in vivo; conditions: rice seedlings, direct therapeutic foliar spray, 600 ppm, 4-5 days
[8] = system: Phytophthora infestans; format: in vivo; conditions: tomato, direct protectant foliar spray
[9] = system: Botrytis cinerea; assay: Direct protectant activity against broad bean grey mould (BCB); format: in vivo; conditions: direct protectant foliar spray, 600 ppm, 4 days
Procedure, shortened: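 Broad bean plants (cv The Sutton, two leaf pairs) sprayed on upper leaf surfaces at 600 ppm, then inoculated 24 h later with 10^6 conidia/ml. Kept 4 days at 22 °C, high humidity; disease control rated from % leaf area with lesions against untreated or diluent controls.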

[10] = system: Leptosphaeria nodorum; assay: Activity against wheat leafspot (LN); format: in vivo; conditions: direct therapeutic foliar spray, 600 ppm, 6-8 days
Procedure, shortened: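 Wheat cv Norman at single-leaf stage spray-inoculated with 1.5×10^6 conidia/ml, held 24 h at high humidity, then sprayed therapeutically with test compound at 600 ppm. Kept 6-8 days at 22° C, 70% humidity; lesion density per leaf rated against untreated or diluent-sprayed controls.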

[11] = system: Pseudocercosporella herpotrichoides; assay: Activity against wheat eyespot in-vitro (PHI); format: cell-based; conditions: 10 ppm, 10 days, 20° C., mycelial growth
Procedure, shortened: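 P. herpotrichoides mycelial fragments (5×10^4/ml) grown in half-strength PDB with compound at 10 ppm final, added from acetone. Incubated 10 days at 20 °C; mycelial growth rated against untreated or diluent controls.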

Structure (SMILES) | disease control rating PVA [1] | disease control rating EGT [2] | disease control rating EGP [3] | disease control rating RSI [4] | disease control rating VII [5] | disease control rating AS [6] | disease control rating PO [7] | disease control rating PIP [8] | disease control rating BCB [9] | disease control rating LN [10] | disease control rating PHI [11]
CC(C)(C)C1CCC2(CC1)CC(NC1CCC3CCCCC3C1)CO2 (stereo not shown) [Compound 138] | 0 (less than 50% disease control) | 0 (less than 50% disease control) | 0 (less than 50% disease control) | 0 (less than 50% disease control) | 0 (less than 50% disease control) | 0 (less than 50% disease control) | 0 (less than 50% disease control) | 2 (greater than 80% disease control) | 0 (less than 50% disease control) | 0 (less than 50% disease control) | 0 (less than 50% disease control)
CC(C)CNC1COC2(CCC(C(C)(C)C3CCCCC3)CC2)C1 (stereo not shown) [Compound 139] | 0 (less than 50% disease control) | 2 (greater than 80% disease control) | 2 (greater than 80% disease control) | 0 (less than 50% disease control) | 2 (greater than 80% disease control) | 0 (less than 50% disease control) | 0 (less than 50% disease control) | 0 (less than 50% disease control) | 0 (less than 50% disease control) | 1 (about 50-80% disease control) | 2 (greater than 80% disease control)
CCCCCCN(C)C1COC2(CCC(C(C)(C)C3CCCCC3)CC2)C1 (stereo not shown) [Compound 140] | 0 (less than 50% disease control) | 2 (greater than 80% disease control) | 2 (greater than 80% disease control) | 2 (greater than 80% disease control) | 2 (greater than 80% disease control) | 0 (less than 50% disease control) | 0 (less than 50% disease control) | 0 (less than 50% disease control) | 0 (less than 50% disease control) | 1 (about 50-80% disease control) | 2 (greater than 80% disease control)
CC1CCN(C2COC3(CCC(C(C)(C)C4CCCCC4)CC3)C2)CC1 (stereo not shown) [Compound 141] | 0 (less than 50% disease control) | 2 (greater than 80% disease control) | 2 (greater than 80% disease control) | 2 (greater than 80% disease control) | 2 (greater than 80% disease control) | 0 (less than 50% disease control) | 0 (less than 50% disease control) | 0 (less than 50% disease control) | 0 (less than 50% disease control) | 1 (about 50-80% disease control) | 2 (greater than 80% disease control)
CC(C)(C1CCCCC1)C1CCC2(CC1)CC(NC1CCCCC1)CO2 (stereo not shown) [Compound 142] | 0 (less than 50% disease control) | 2 (greater than 80% disease control) | 2 (greater than 80% disease control) | 2 (greater than 80% disease control) | 2 (greater than 80% disease control) | 0 (less than 50% disease control) | 0 (less than 50% disease control) | 1 (about 50-80% disease control) | 0 (less than 50% disease control) | 0 (less than 50% disease control) | 2 (greater than 80% disease control)
CC(C)CN(CC(C)C)C1COC2(CCC(C(C)(C)C)CC2)C1 (stereo not shown) [Compound 143] | 0 (less than 50% disease control) | 2 (greater than 80% disease control) | 2 (greater than 80% disease control) | 0 (less than 50% disease control) | 0 (less than 50% disease control) | 0 (less than 50% disease control) | 0 (less than 50% disease control) | 0 (less than 50% disease control) | 0 (less than 50% disease control) | 0 (less than 50% disease control) | 0 (less than 50% disease control)
CC(C)(C)C1CCC2(CC1)CC(CN)CO2 (stereo not shown) [Compound 181, 8-t-Butyl-3-aminomethyl-1-oxaspiro(4,5)decane] | 0 (less than 50% disease control) | 2 (greater than 80% disease control) | 2 (greater than 80% disease control) | 0 (less than 50% disease control) | 0 (less than 50% disease control) | 0 (less than 50% disease control) | 0 (less than 50% disease control) | 2 (greater than 80% disease control) | 0 (less than 50% disease control) | 0 (less than 50% disease control) | 0 (less than 50% disease control)
CC(C)(C)C1CCC2(CC1)CC(CNC1CCCCC1)CO2 (stereo not shown) [Compound 182, 8-t-Butyl-3-cyclohexylaminomethyl-1-oxaspiro(4,5)decane] | 0 (less than 50% disease control) | 2 (greater than 80% disease control) | 2 (greater than 80% disease control) | 2 (greater than 80% disease control) | 2 (greater than 80% disease control) | 0 (less than 50% disease control) | 0 (less than 50% disease control) | 0 (less than 50% disease control) | 1 (about 50-80% disease control) | 1 (about 50-80% disease control) | 1 (about 50-80% disease control)
